Assay results published in paper PMC12040169 (PLOS Biology, 2025).

assay: in vitro; details: human, hela cells, % viability

Structure (SMILES) | viability at 28.5 h, 10 µM [%]
Fc1ccc(C2NC(S)=NC3=C2N2CCC3CC2)cc1 (stereo not drawn) [CBK288390] | 95.4
SC1=NC2(CCCC2)NN1c1ccc(Cl)cc1 [CBK288391] | 83.2
O=c1cc(CN2CCN(c3ccccc3)CC2)occ1O [CBK288392] | 89
CN1CCN(Cc2oc(CO)cc(=O)c2O)CC1 [CBK288394] | 89.6
Cc1cc(Cl)ccc1OCCCc1nnc(S)n1C [CBK288396] | 85.1
CCCOC(=O)N(O)c1ccc(Cl)c(Cl)c1 [CBK288400] | 94.4
O=C(O)c1cccc(Cn2c(C3CC3)n[nH]c2=S)c1 [CBK288401] | 87.1
O=c1cc2nc(-c3ccccc3F)[nH]c(=S)n2[nH]1 [CBK288402] | 95.5
O=c1nc(CNc2ccc(Br)cc2)[nH][nH]1 [CBK288403] | 86.2
NS(=O)(=O)c1ccc(CCNC(=O)C2CC2)cc1 [CBK288407] | 107
CCC(CC)Oc1ccc(C2(C)NC(=O)NC2=O)cc1 (stereo not drawn) [CBK288409] | 96.4
OCn1nc(-c2ccc(Cl)cc2Cl)oc1=S [CBK288410] | 107
Cn1c2ccccc2c2ncn(CCS)c(=O)c21 [CBK288412] | 114
COc1cc(OC)cc(-c2[nH][nH]c(=O)c2CCN)c1 [CBK288414] | 110
O=C1CC(N(O)c2ccccc2)C(=O)N1c1ccc(F)cc1 (stereo not drawn) [CBK288419] | 104
NS(=O)(=O)c1ccc(CN2CCCC2=O)cc1 [CBK288420] | 108
Sc1nnc(-c2ccncc2)n1C1CCCCC1 [CBK288421] | 105
Cc1cc(S)n2nc(C)c(-c3ccccc3)c2n1 [CBK288423] | 99
O=C(NS(=O)(=O)c1ccccc1)c1ccccc1 [CBK288429] | 88.2
O=C1N(c2cccc(Cl)c2)Cc2nc(=O)[nH]n21 [CBK288430] | 85.1
O=C(O)C(=O)N1CCN(C(=O)c2cc3ccccc3[nH]2)CC1 [CBK288433] | 107
CN(C)CCCNC(=O)c1ccnc(/C=N/O)c1 [CBK288434] | 101
O=C(CCCOc1ccc(Cl)cc1Cl)NO [CBK288436] | 81.7
S=C1C=C(c2ccccc2)Nc2ccccc2N1 [CBK288438] | 87.2
O=c1[nH]nc2c(SCc3ccccc3)nccn12 [CBK288440] | 90.5

Structure (SMILES) | viability at 28.5 h, 10 µM [%]
CCOC(=O)N1CCN(c2cc3[nH]c(S)nc3cc2F)CC1 [CBK288444] | 89.9
Cc1cc(S)c2cc(Br)ccc2n1 [CBK288445] | 80.5
NS(=O)(=O)c1cccnc1NCc1ccccc1 [CBK288448] | 85.7
O=c1[nH]nc2c(S(=O)(=O)N3CCCCC3)cccn12 [CBK288450] | 74.9
Cc1cc(C)cc(Oc2nccn3c(=O)[nH]nc23)c1 [CBK288451] | 89.5
CCN=C(S)NS(=O)(=O)c1ccc(C)cc1 [CBK288452] | 86.2
Cc1cc2c(cc1Br)NC(=O)/C2=N\O [CBK288453] | 56
Cc1nc(S)[nH]c(=O)c1Cc1ccc(F)cc1 [CBK288456] | 107
Cc1cc(N2CCCC2=O)cc(C)c1S(N)(=O)=O [CBK288458] | 89.9
O=c1[nH]nc2ccc(S(=O)(=O)N3CCCCC3)cn12 [CBK288459] | 89.5
COc1ccc(-c2c[nH]c3c(=S)[nH]cnc23)cc1 [CBK288462] | 60.5
CC1(C)CC(=O)C2=C(C1)Nc1[nH][nH]c(=O)c1C2c1ccccn1 (stereo not drawn) [CBK288463] | 92
CCC(=O)NC(=S)Nc1ccc(C(=O)N2CCCC2)cc1 [CBK288464] | 108
Cn1c(-c2ccccc2)c(C(=O)C(N)=O)c2ccccc21 [CBK288465] | 104
NC(=O)C(=O)c1c(-c2ccccc2)cc2ccccn12 [CBK288466] | 100
O=c1[nH]nc2c(S(=O)(=O)N3CCOCC3)cccn12 [CBK288469] | 94.1
O=c1[nH]nc2c(SC3CCCCC3)nccn12 [CBK288471] | 69.4
O=C(NCc1ccccn1)/C(=N/O)c1ccccc1 [CBK288472] | 114
S=c1nc(-c2ccccc2)n(-c2ccccc2)[nH]1 [CBK288474] | 103
O=C(O)c1ccc(COc2ccccc2/C=N/O)cc1 [CBK288481] | 108
O=c1c2ccccc2nc(COc2ccccc2)n1O [CBK288482] | 108
FC(F)(F)c1ccc2c(c1)nc(S)n2C1CC1 [CBK288483] | 86.2
O=c1c2sccc2[nH]c(=S)n1CCc1ccccc1 [CBK288486] | 118
CN(C)CCCNC(=O)c1ccc(/C=N/O)nc1 [CBK288489] | 121
O=c1[nH]nc2c(N3CCc4ccccc4C3)nccn12 [CBK288497] | 80.9

Structure (SMILES) | viability at 28.5 h, 10 µM [%]
S=c1[nH]cc(-c2ccc(Br)cc2)o1 [CBK288498] | 92.8
CN(CCCCCC(=O)/C=N/O)Cc1ccccc1 [CBK288499] | 91.7
O/N=C/c1ccc(-c2cc(Cl)ccc2Cl)o1 [CBK288500] | 92.6
Fc1cccc(C2NC(S)=NC3=C2N2CCC3CC2)c1 (stereo not drawn) [CBK288503] | 88.2
CC(C)CCn1c(=S)[nH]c2c(oc3ccccc32)c1=O [CBK288504] | 100
CCCCn1c(S)nc2c(-c3ccccc3)c[nH]c2c1=O [CBK288505] | 96.2
S=C1NC2c3ccccc3OC3(CCCCC23)N1 (stereo not drawn) [CBK288506] | 102
S=c1[nH]nc(COc2ccc(Cl)cc2Cl)[nH]1 [CBK288511] | 80.3
NS(=O)(=O)c1cc(C(=O)NCCc2ccc(F)cc2)c(Cl)cc1Cl [CBK288512] | 96.7
Cc1cn(-c2ccc(Br)cc2)[nH]c1=O [CBK288513] | 92.7
COc1ccc(C(=S)NCCCCCC(=O)O)cc1 [CBK288523] | 87.1
CC1CCc2c(sc(NC(=O)c3ccncc3)c2C(N)=O)C1 (stereo not drawn) [CBK288530] | 87.8
C1=Nn2c(nnc2-c2ccncc2)SC(c2ccccc2)=C1 [CBK288535] | 101
CCSc1nc(-c2ccncc2)ccc1C#N [CBK288539] | 75.2
CN1CCc2c(sc3ncn4nc(-c5ccncc5)nc4c23)C1 [CBK288540] | 96.2
Cc1nc2sc3c(c2c2nc(-c4ccncc4)nn12)CCCC3 [CBK288541] | 94.5
c1cc(-c2nnc3n2CCCCS3)ccn1 [CBK288543] | 99.3
Brc1cnc(-n2cnc3ccccc32)nc1 [CBK288546] | 84.2
N#Cc1sc2nc(-c3ccncc3)ccc2c1N [CBK288547] | 78.3
Cc1nn2c(-c3ccncc3)ccnc2c1-c1ccccc1 [CBK288548] | 103
OCc1nnn(-c2ccncc2)c1CO [CBK288549] | 96.8
Cc1ccc(-c2ncc3c(=O)[nH]c(=O)n(C)c3n2)cc1 [CBK288553] | 89.6
O=C1Nc2ccccc2C(O)(C(=O)NCc2ccccc2)N1c1ccccc1 (stereo not drawn) [CBK288555] | 91.1
Cc1ccc(C)c(-c2csc3c(=O)[nH]cnc23)c1 [CBK288556] | 101
O=C(O)CCc1nc(-c2ccncc2)no1 [CBK288558] | 98.7

Structure (SMILES) | viability at 28.5 h, 10 µM [%]
COc1cc2[nH]c(=S)n3nc(-c4ccncc4)nc3c2cc1OC [CBK288559] | 104
CSc1nc2ccccc2c2nc(-c3ccncc3)nn12 [CBK288566] | 99.7
CCCCn1c(SCc2nc(-c3ccncc3)no2)nc2ccsc2c1=O [CBK288576] | 87
O=C(NCCn1c(-c2ccncc2)nc2ccccc21)c1ccc(F)c(F)c1 [CBK288577] | 88.9
O=S(=O)(NCCn1c(-c2ccncc2)nc2ccccc21)c1ccccc1 [CBK288578] | 87.2
O=S(=O)(Cc1ccc(-c2nc(-c3ccncc3)no2)o1)c1ccccc1 [CBK288579] | 96.6
Cc1cccc(NC(=O)NCCCn2c(-c3ccncc3)nc3cccnc32)c1 [CBK288580] | 97.5
COCCNC(=O)NCCCn1c(-c2ccncc2)nc2cccnc21 [CBK288581] | 98.6
O=C1CC(c2nc(-c3ccncc3)no2)CN1c1ccc2c(c1)OCO2 (stereo not drawn) [CBK288583] | 110
NC(=O)Cn1cc(C(=O)c2ccncc2)c(=O)c2cc(Cl)ccc21 [CBK288584] | 86
O=C(c1csc(-c2ccncc2)n1)N1CCN(c2ccccc2)CC1 [CBK288590] | 110
O=C(NC1CCCCC1)c1csc(-c2ccncc2)n1 [CBK288591] | 64.2
Cn1c(=O)n(Cc2ccccn2)c(=O)c2cnc(-c3ccncc3)nc21 [CBK288592] | 79
Cc1cccc(Cn2c(=O)c3cnc(-c4ccncc4)nc3n(C)c2=O)c1 [CBK288593] | 82.8
O=C(CCn1cnc2cc(-c3noc(-c4cnccn4)n3)ccc21)N1CCCC1 [CBK288595] | 104
CCCN1C(=O)COc2ccc(-c3noc(-c4ccccn4)n3)cc21 [CBK288596] | 92.1
Cc1ccc(S(=O)(=O)CCc2noc(-c3n[nH]c4ccccc34)n2)cc1 [CBK288598] | 104
O=C(Cn1c(=O)c2nncn2c2ncccc21)NC1CCCCCC1 [CBK288600] | 92.3
Cc1nnc2c(=O)n(CC(=O)N3CCN(C(C)C)CC3)c3cccnc3n12 [CBK288601] | 94.3
O=C(NCCc1ccccc1)c1nc(-c2ccncc2)cs1 [CBK288604] | 70
CC(C)CC(=O)N1CCCn2nc(-c3ccncc3)cc2C1 [CBK288606] | 94.7
O=C(c1ccncc1)N1CCCn2nc(-c3cccnc3)cc2C1 [CBK288607] | 88.7
O=S(=O)(CCc1ccccc1)N1CCCn2nc(-c3ccncc3)cc2C1 [CBK288608] | 87.3

same assay, conditions: human, hela cells, % viability, bulk resorufin, single well

Structure (SMILES) | viability at 28.5 h, 10 µM [%]
Cc1ccc(Cl)c(OC(=O)NCCOC(=O)NO)c1 [CBK288417] | 94.3
